“And” between values parts separate entries of the source, which are not always exact repeats. Identical values can stand only once. Toxic doses and inconclusive results are not listed. The calls were made as follows: active = survival T/C of 150% or more; inactive = T/C below 125% in these data.
System: P388 leukemia ip, CD2F1 mice, survival T/C
Experiment: NCI In Vivo Anticancer Drug Screen. Data for tumor model P388 Leukemia (intraperitoneal) in CD2F1 (CDF1) mice
Details: endpoint: median survival time, higher = longer survival
Summary of the method: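 Mice carrying the transplanted tumor received test compound or vehicle. Survival was recorded in each group, and the value is the treated-group measurement divided by that of the vehicle-treated control group.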

[1] = dose: 50.0 mg/kg/injection, schedule: Q01DX009 (ip), vehicle: saline with Tween-80
[2] = dose: 100.0 mg/kg/injection, schedule: Q01DX009 (ip), vehicle: saline with Tween-80
[3] = dose: 50.0 mg/kg/injection, schedule: Q01DX009 (ip), vehicle: Klucel (hydroxypropylcellulose) (HPC)
[4] = dose: 100.0 mg/kg/injection, schedule: Q01DX009 (ip), vehicle: Klucel (hydroxypropylcellulose) (HPC)
[5] = dose: 200.0 mg/kg/injection, schedule: Q01DX009 (ip), vehicle: Klucel (hydroxypropylcellulose) (HPC)
[6] = dose: 50.0 mg/kg/injection, schedule: Q01DX005 (ip), vehicle: saline with Tween-80
[7] = dose: 100.0 mg/kg/injection, schedule: Q01DX005 (ip), vehicle: saline with Tween-80
[8] = dose: 200.0 mg/kg/injection, schedule: Q01DX005 (ip), vehicle: saline with Tween-80
[9] = dose: 50.0 mg/kg/injection, schedule: Q01DX005 (ip), vehicle: Klucel (hydroxypropylcellulose) (HPC)
[10] = dose: 100.0 mg/kg/injection, schedule: Q01DX005 (ip), vehicle: Klucel (hydroxypropylcellulose) (HPC)
[11] = dose: 200.0 mg/kg/injection, schedule: Q01DX005 (ip), vehicle: Klucel (hydroxypropylcellulose) (HPC)

Measured: T/C

O=c1cc[nH]c(=O)o1
inactive: dose: 6.25 mg/kg/injection, schedule: Q01DX009 (ip), vehicle: water 108 % of control | dose: 12.5 mg/kg/injection, schedule: Q01DX009 (ip), vehicle: water 119 % of control | dose: 25.0 mg/kg/injection, schedule: Q01DX009 (ip), vehicle: water 124 % of control | dose: 50.0 mg/kg/injection, schedule: Q01DX009 (ip), vehicle: water 121 % of control

CCCCCCCCCCCCCCCCOc1ccc(OC)cc1C(=O)NNC(=S)SC
inactive: dose: 50.0 mg/kg/injection, schedule: Q01DX009 (ip), vehicle: saline + alcohol 100 % of control | dose: 100.0 mg/kg/injection, schedule: Q01DX009 (ip), vehicle: saline + alcohol 103 % of control | dose: 200.0 mg/kg/injection, schedule: Q01DX009 (ip), vehicle: saline + alcohol 87 % of control

CCCCP(=O)(CC(=O)O)c1ccccc1 (centres undefined)
inactive: dose: 60.0 mg/kg/injection, schedule: Q01DX005 (ip), vehicle: saline with Tween-80 98 % of control | dose: 120.0 mg/kg/injection, schedule: Q01DX005 (ip), vehicle: saline with Tween-80 99 % of control | dose: 240.0 mg/kg/injection, schedule: Q01DX005 (ip), vehicle: saline with Tween-80 102 % of control

COC(=O)C1CCc2c(cnn2-c2ccccn2)C1 (centres undefined)
inactive: [1] 97 % of control | [2] 101 % of control | dose: 200.0 mg/kg/injection, schedule: Q01DX009 (ip), vehicle: saline with Tween-80 100 % of control

CN(C)C(=N)N(C)C
inactive: dose: 25.0 mg/kg/injection, schedule: Q01DX009 (ip), vehicle: saline with Tween-80 100 % of control | [1] 100 % of control | [2] 95 % of control

CCCCCCCCCCCCCCCCS(=O)(=O)N/N=c1/sc2ccc(S(=O)(=O)O)cc2n1C
inactive: [3] 115 % of control | [4] 102 % of control | [5] 94 % of control

O=c1cc(O)c1=O
inactive: dose: 0.78 mg/kg/injection, schedule: Q01DX009 (ip), vehicle: saline 96 % of control | dose: 1.56 mg/kg/injection, schedule: Q01DX009 (ip), vehicle: saline 109 % of control | dose: 3.13 mg/kg/injection, schedule: Q01DX009 (ip), vehicle: saline 91 % of control | dose: 6.25 mg/kg/injection, schedule: Q01DX009 (ip), vehicle: saline 98 % of control

O=c1c2cc(Br)ccc2nc2n1N=C(c1ccccc1)C(c1ccccc1)=NN2
inactive: dose: 50.0 mg/kg/injection, schedule: Q04DX002 (ip), vehicle: Klucel (hydroxypropylcellulose) (HPC) 88 % of control | dose: 100.0 mg/kg/injection, schedule: Q04DX002 (ip), vehicle: Klucel (hydroxypropylcellulose) (HPC) 91 % of control | dose: 200.0 mg/kg/injection, schedule: Q04DX002 (ip), vehicle: Klucel (hydroxypropylcellulose) (HPC) 87 % of control

O=C(CBr)c1cc2c(cc1I)OCO2
inactive: dose: 6.25 mg/kg/injection, schedule: Q01DX001 (ip), vehicle: saline with Tween-80 104 % of control | dose: 12.5 mg/kg/injection, schedule: Q01DX001 (ip), vehicle: saline with Tween-80 105 % of control | dose: 25.0 mg/kg/injection, schedule: Q01DX001 (ip), vehicle: saline with Tween-80 99 % of control and 101 % of control | dose: 100.0 mg/kg/injection, schedule: Q01DX001 (ip), vehicle: saline with Tween-80 100 % of control

C/C=C1/CN2CCC34c5ccccc5N(C)C23C2CC1C4(C(=O)OC)C(O)O2 (centres undefined)
inactive: dose: 9.25 mg/kg/injection, schedule: Q01DX005 (ip), vehicle: saline + Tween-80 + alcohol 114 % of control | dose: 18.5 mg/kg/injection, schedule: Q01DX005 (ip), vehicle: saline + Tween-80 + alcohol 93 % of control | dose: 37.0 mg/kg/injection, schedule: Q01DX005 (ip), vehicle: saline + Tween-80 + alcohol 100 % of control | dose: 74.0 mg/kg/injection, schedule: Q01DX005 (ip), vehicle: saline + Tween-80 + alcohol 100 % of control

O=C(/C=C/c1ccc(Cl)c(Cl)c1)c1cccc(O)c(=O)c1
inactive: dose: 25.0 mg/kg/injection, schedule: Q01DX009 (ip), vehicle: Klucel (hydroxypropylcellulose) (HPC) 102 % of control | [3] 111 % of control and 118 % of control | [4] 118 % of control | [5] 118 % of control

CC1C(c2ccccc2)OCCN1C(=S)Nc1ccc(S(=O)(=O)N2CCCCC2)cc1 (centres undefined)
inactive: [3] 86 % of control and 95 % of control | [4] 105 % of control | [5] 91 % of control and 95 % of control

CCCCCCCCCCCCSC1COC2C(SCCCCCCCCCCCC)COC12 (centres undefined)
inactive: [6] 100 % of control | [7] 96 % of control | [8] 99 % of control

C#CCNC(=S)N/N=C(\C)c1ccccn1
inactive: dose: 3.13 mg/kg/injection, schedule: Q01DX009 (ip), vehicle: saline with Tween-80 97 % of control | dose: 6.25 mg/kg/injection, schedule: Q01DX009 (ip), vehicle: saline with Tween-80 97 % of control | dose: 12.5 mg/kg/injection, schedule: Q01DX009 (ip), vehicle: saline with Tween-80 103 % of control

Cc1ccccc1[B-]12OCC[N+]1(CNC(=O)C1=C(O)C3(O)C(=O)C4=C(O)c5c(O)cccc5C(C)(O)C4CC3C(N(C)C)C1=O)CCO2 (centres undefined)
inactive: [9] 110 % of control | [10] 115 % of control | [11] 108 % of control

O=C(Oc1ccc[nH]c1=O)c1cccc(C(F)(F)F)c1
inactive: dose: 12.5 mg/kg/injection, schedule: Q01DX009 (ip), vehicle: distilled water + Tween-80 100 % of control | dose: 25.0 mg/kg/injection, schedule: Q01DX009 (ip), vehicle: distilled water + Tween-80 100 % of control | dose: 50.0 mg/kg/injection, schedule: Q01DX009 (ip), vehicle: distilled water + Tween-80 102 % of control | dose: 100.0 mg/kg/injection, schedule: Q01DX009 (ip), vehicle: distilled water + Tween-80 96 % of control | dose: 200.0 mg/kg/injection, schedule: Q01DX009 (ip), vehicle: distilled water + Tween-80 90 % of control

C[Si](C)(C)Cn1ccc2ccccc21
inactive: [6] 100 % of control | [7] 105 % of control | [8] 108 % of control

C[CH2][Pb]([CH2]C)([CH2]C)[O]C(=O)CBr
inactive: dose: 2.0 mg/kg/injection, schedule: Q01DX009 (ip), vehicle: saline 111 % of control | dose: 3.0 mg/kg/injection, schedule: Q01DX009 (ip), vehicle: saline 117 % of control | dose: 4.5 mg/kg/injection, schedule: Q01DX009 (ip), vehicle: saline 119 % of control

O=C1C=C(O)CN1C(=O)c1ccc(Cl)cc1
inactive: [3] 98 % of control | [4] 107 % of control | [5] 107 % of control

C=C(C)c1nc(N)nc(Nc2ccccc2)n1
inactive: [9] 103 % of control | [10] 111 % of control | [11] 106 % of control

CC1C(O)CCC2=CC(=O)C3(C4(CO)CO4)OC3C21C (centres undefined)
inactive: dose: 15.0 mg/kg/injection, schedule: Q01DX005 (ip), vehicle: saline 102 % of control | dose: 30.0 mg/kg/injection, schedule: Q01DX005 (ip), vehicle: saline 91 % of control | dose: 60.0 mg/kg/injection, schedule: Q01DX005 (ip), vehicle: saline 108 % of control | dose: 62.5 mg/kg/injection, schedule: Q01DX005 (ip), vehicle: saline 103 % of control | dose: 120.0 mg/kg/injection, schedule: Q01DX005 (ip), vehicle: saline 98 % of control | dose: 125.0 mg/kg/injection, schedule: Q01DX005 (ip), vehicle: saline 110 % of control | dose: 250.0 mg/kg/injection, schedule: Q01DX005 (ip), vehicle: saline 114 % of control

Reference: PubChem BioAssay AID330 (DTP/NCI, 2004)
